Values of other authors as cited in patent US20130316017A1, “Oral Composition for the Treatment of Acne” (priority 2012, published 2013).

Legend:
[1] = short-term (0-3 hours)
sebum = conditions: in vivo

SMILES | short-term availability of curcumin and any other compound in the composition [1] | reduction of sebum (sebum)
O=C(/C=C/C=C/c1ccc2c(c1)OCO2)N1CCCCC1 [Piperine] | improve | –
CC(C)(CO)[C@@H](O)C(=O)NCCC(=O)O [vitamin B5] | – | reduce sebum
